Measured values from patent US6960574B2, “Antagonists of RF-amide neuropeptides” (University of Florida, priority 2002, dated 2005).
Square brackets hold non-standard residues; d marks the D form. Peptide text beside a SMILES is read from it. * marks the point of attachment. ξ: configuration not given here. Dansyl = CN(C)c1cccc2c(S(=O)(=O)*)cccc12; ξL = CC(C)CC(N)C(=O)O

System: receptor labeled by the radioiodinated analogue of 1 (4, [125I]-YLFQPQRF-NH2); neuropeptide FF receptor
Test: Competitive radioligand binding against 4 ([125I]Y8F-amide)
Details: mixture-based positional scanning; difference from averaged radioligand displacement of whole library (0); about 80 a.u. = 10-fold change in Ki

Compared with `CN(C)c1cccc2c(S(=O)(=O)N[C@@H](CCCCN)C(=O)N[C@@H](CCC(=O)O)C(=O)N[C@@H](CCCNC(=N)N)C(N)=O)cccc12` [Dansyl-KER-amide] (Dansyl-Lys-Glu-Arg-NH2), `CN(C)c1cccc2c(S(=O)(=O)N[C@@H](CCCCN)C(=O)N[C@@H](CCC(N)=O)C(=O)N[C@@H](CCCNC(=N)N)C(N)=O)cccc12` [Dansyl-KQR-amide] (Dansyl-Lys-Gln-Arg-NH2) is higher in “Relative Binding Index (RBI)” value: 25 a.u for the first, 38 a.u for the second.

Going from `CN(C)c1cccc2c(S(=O)(=O)N[C@@H](CCCCN)C(=O)N[C@@H](Cc3ccccc3)C(=O)N[C@@H](CCCNC(=N)N)C(N)=O)cccc12` [Dansyl-KFR-amide] (Dansyl-Lys-Phe-Arg-NH2) to `CSCC[C@H](NS(=O)(=O)c1cccc2c(N(C)C)cccc12)C(=O)N[C@@H](Cc1ccccc1)C(=O)N[C@@H](CCCNC(=N)N)C(N)=O` [Dansyl-MFR-amide] (Dansyl-Met-Phe-Arg-NH2), the “Relative Binding Index (RBI)” value falls from 23 a.u to −45 a.u.

First: CN(C)c1cccc2c(S(=O)(=O)N[C@@H](CCCCN)C(=O)NCC(=O)N[C@@H](CCCNC(=N)N)C(N)=O)cccc12 [Dansyl-KGR-amide] (Dansyl-Lys-Gly-Arg-NH2)
Second: CSCC[C@H](NS(=O)(=O)c1cccc2c(N(C)C)cccc12)C(=O)NCC(=O)N[C@@H](CCCNC(=N)N)C(N)=O [Dansyl-MGR-amide] (Dansyl-Met-Gly-Arg-NH2)
The “Relative Binding Index (RBI)” value of the first is higher: 30 a.u for the first, −39 a.u for the second.

First: CN(C)c1cccc2c(S(=O)(=O)N[C@@H](CCCCN)C(=O)N[C@@H](Cc3c[nH]cn3)C(=O)N[C@@H](CCCNC(=N)N)C(N)=O)cccc12 [Dansyl-KHR-amide] (Dansyl-Lys-His-Arg-NH2)
Second: CN(C)c1cccc2c(S(=O)(=O)N[C@@H](CCCCN)C(=O)N[C@@H](CO)C(=O)N[C@@H](CCCNC(=N)N)C(N)=O)cccc12 [Dansyl-KSR-amide] (Dansyl-Lys-Ser-Arg-NH2)
The “Relative Binding Index (RBI)” value of the first is lower: 19 a.u for the first, 45 a.u for the second.

Compared with `CCC(C)C(NC(=O)C(CCCCN)NS(=O)(=O)c1cccc2c(N(C)C)cccc12)C(=O)NC(CCCNC(=N)N)C(N)=O` (stereo not drawn) [Dansyl-KIR-amide] (Dansyl-Lys-Ile-Arg-NH2; configuration not given here), `CC(C)[C@H](NC(=O)[C@H](CCCCN)NS(=O)(=O)c1cccc2c(N(C)C)cccc12)C(=O)N[C@@H](CCCNC(=N)N)C(N)=O` [Dansyl-KVR-amide] (Dansyl-Lys-Val-Arg-NH2) is lower in “Relative Binding Index (RBI)” value: 31 a.u for the first, 20 a.u for the second.

First: CN(C)c1cccc2c(S(=O)(=O)N[C@@H](CCCCN)C(=O)N[C@@H](CCCCN)C(=O)N[C@@H](CCCNC(=N)N)C(N)=O)cccc12 [Dansyl-KKR-amide] (Dansyl-Lys-Lys-Arg-NH2)
Second: CN(C)c1cccc2c(S(=O)(=O)N[C@@H](CCCCN)C(=O)N[C@@H](CCCNC(=N)N)C(=O)N[C@@H](CCCNC(=N)N)C(N)=O)cccc12 [Dansyl-KRR-amide] (Dansyl-Lys-Arg-Arg-NH2)
The “Relative Binding Index (RBI)” value of the first is lower: 22 a.u for the first, 23 a.u for the second.

Going from `CC(C)CC(NC(=O)[C@H](CCCCN)NS(=O)(=O)c1cccc2c(N(C)C)cccc12)C(=O)N[C@@H](CCCNC(=N)N)C(N)=O` (some centres unmarked) [Dansyl-KLR-amide] (Dansyl-Lys-[ξL]-Arg-NH2) to `CC(C)C[C@H](NS(=O)(=O)c1cccc2c(N(C)C)cccc12)C(=O)N[C@@H](CCCCN)C(=O)N[C@@H](CCCNC(=N)N)C(N)=O` [Dansyl-LKR-amide] (Dansyl-Leu-Lys-Arg-NH2), the “Relative Binding Index (RBI)” value falls from 16 a.u to −34 a.u.

Going from `CSCC[C@H](NC(=O)[C@H](CCCCN)NS(=O)(=O)c1cccc2c(N(C)C)cccc12)C(=O)N[C@@H](CCCNC(=N)N)C(N)=O` [Dansyl-KMR-amide] (Dansyl-Lys-Met-Arg-NH2) to `CN(C)c1cccc2c(S(=O)(=O)N[C@@H](CCCCN)C(=O)N[C@@H](CC(N)=O)C(=O)N[C@@H](CCCNC(=N)N)C(N)=O)cccc12` [Dansyl-KNR-amide] (Dansyl-Lys-Asn-Arg-NH2), the “Relative Binding Index (RBI)” value rises from 25 a.u to 26 a.u.

Going from `CN(C)c1cccc2c(S(=O)(=O)N[C@@H](CCCCN)C(=O)N3CCC[C@H]3C(=O)N[C@@H](CCCNC(=N)N)C(N)=O)cccc12` [Dansyl-KPR-amide] (Dansyl-Lys-Pro-Arg-NH2) to `CC(C)C[C@H](NS(=O)(=O)c1cccc2c(N(C)C)cccc12)C(=O)N1CCC[C@H]1C(=O)N[C@@H](CCCNC(=N)N)C(N)=O` [Dansyl-LPR-amide] (Dansyl-Leu-Pro-Arg-NH2), the “Relative Binding Index (RBI)” value falls from 28 a.u to −29 a.u.

Going from `C[C@@H](O)[C@H](NC(=O)[C@H](CCCCN)NS(=O)(=O)c1cccc2c(N(C)C)cccc12)C(=O)N[C@@H](CCCNC(=N)N)C(N)=O` [Dansyl-KTR-amide] (Dansyl-Lys-Thr-Arg-NH2) to `CC(C)C[C@H](NS(=O)(=O)c1cccc2c(N(C)C)cccc12)C(=O)N[C@H](C(=O)N[C@@H](CCCNC(=N)N)C(N)=O)[C@@H](C)O` [Dansyl-LTR-amide] (Dansyl-Leu-Thr-Arg-NH2), the “Relative Binding Index (RBI)” value falls from 30 a.u to −26 a.u.

Going from `CN(C)c1cccc2c(S(=O)(=O)N[C@@H](CCCCN)C(=O)N[C@@H](Cc3c[nH]c4ccccc34)C(=O)N[C@@H](CCCNC(=N)N)C(N)=O)cccc12` [Dansyl-KWR-amide] (Dansyl-Lys-Trp-Arg-NH2) to `CC(C)C[C@H](NS(=O)(=O)c1cccc2c(N(C)C)cccc12)C(=O)N[C@@H](Cc1c[nH]c2ccccc12)C(=O)N[C@@H](CCCNC(=N)N)C(N)=O` [Dansyl-LWR-amide] (Dansyl-Leu-Trp-Arg-NH2), the “Relative Binding Index (RBI)” value falls from 34 a.u to −23 a.u.

Going from `CN(C)c1cccc2c(S(=O)(=O)N[C@@H](CCCCN)C(=O)N[C@@H](Cc3ccc(O)cc3)C(=O)N[C@@H](CCCNC(=N)N)C(N)=O)cccc12` [Dansyl-KYR-amide] (Dansyl-Lys-Tyr-Arg-NH2) to `CC(C)C[C@H](NS(=O)(=O)c1cccc2c(N(C)C)cccc12)C(=O)N[C@@H](Cc1ccc(O)cc1)C(=O)N[C@@H](CCCNC(=N)N)C(N)=O` [Dansyl-LYR-amide] (Dansyl-Leu-Tyr-Arg-NH2), the “Relative Binding Index (RBI)” value falls from 23 a.u to −33 a.u.

Compared with `CC(C)C[C@H](NS(=O)(=O)c1cccc2c(N(C)C)cccc12)C(=O)N[C@@H](C)C(=O)N[C@@H](CCCNC(=N)N)C(N)=O` [Dansyl-LAR-amide] (Dansyl-Leu-Ala-Arg-NH2), `CC(C)C[C@H](NS(=O)(=O)c1cccc2c(N(C)C)cccc12)C(=O)N[C@H](C(=O)N[C@@H](CCCNC(=N)N)C(N)=O)C(C)C` [Dansyl-LVR-amide] (Dansyl-Leu-Val-Arg-NH2) is higher in “Relative Binding Index (RBI)” value: −81 a.u for the first, −37 a.u for the second.

Going from `CC(C)C[C@H](NS(=O)(=O)c1cccc2c(N(C)C)cccc12)C(=O)N[C@@H](CC(=O)O)C(=O)N[C@@H](CCCNC(=N)N)C(N)=O` [Dansyl-LDR-amide] (Dansyl-Leu-Asp-Arg-NH2) to `CC(C)C[C@H](NS(=O)(=O)c1cccc2c(N(C)C)cccc12)C(=O)N[C@@H](CCC(=O)O)C(=O)N[C@@H](CCCNC(=N)N)C(N)=O` [Dansyl-LER-amide] (Dansyl-Leu-Glu-Arg-NH2), the “Relative Binding Index (RBI)” value rises from −50 a.u to −32 a.u.

First: CC(C)C[C@H](NS(=O)(=O)c1cccc2c(N(C)C)cccc12)C(=O)N[C@@H](Cc1ccccc1)C(=O)N[C@@H](CCCNC(=N)N)C(N)=O [Dansyl-LFR-amide] (Dansyl-Leu-Phe-Arg-NH2)
Second: CC(C)C[C@H](NS(=O)(=O)c1cccc2c(N(C)C)cccc12)C(=O)N[C@@H](CO)C(=O)N[C@@H](CCCNC(=N)N)C(N)=O [Dansyl-LSR-amide] (Dansyl-Leu-Ser-Arg-NH2)
The “Relative Binding Index (RBI)” value of the first is lower: −33 a.u for the first, −11 a.u for the second.

First: CC(C)C[C@H](NS(=O)(=O)c1cccc2c(N(C)C)cccc12)C(=O)NCC(=O)N[C@@H](CCCNC(=N)N)C(N)=O [Dansyl-LGR-amide] (Dansyl-Leu-Gly-Arg-NH2)
Second: CC[C@H](C)[C@H](NC(=O)[C@H](CC(C)C)NS(=O)(=O)c1cccc2c(N(C)C)cccc12)C(=O)N[C@@H](CCCNC(=N)N)C(N)=O [Dansyl-LIR-amide] (Dansyl-Leu-Ile-Arg-NH2)
The “Relative Binding Index (RBI)” value of the first is lower: −27 a.u for the first, −26 a.u for the second.

Going from `CC(C)C[C@H](NS(=O)(=O)c1cccc2c(N(C)C)cccc12)C(=O)N[C@@H](Cc1cnc[nH]1)C(=O)N[C@@H](CCCNC(=N)N)C(N)=O` [Dansyl-LHR-amide] (Dansyl-Leu-His-Arg-NH2) to `CSCC[C@H](NC(=O)[C@H](CC(C)C)NS(=O)(=O)c1cccc2c(N(C)C)cccc12)C(=O)N[C@@H](CCCNC(=N)N)C(N)=O` [Dansyl-LMR-amide] (Dansyl-Leu-Met-Arg-NH2), the “Relative Binding Index (RBI)” value rises from −38 a.u to −32 a.u.

Compared with `CC(C)C[C@H](NC(=O)[C@H](CC(C)C)NS(=O)(=O)c1cccc2c(N(C)C)cccc12)C(=O)N[C@@H](CCCNC(=N)N)C(N)=O` [Dansyl-LLR-amide], `CC(C)C[C@H](NS(=O)(=O)c1cccc2c(N(C)C)cccc12)C(=O)N[C@@H](CC(N)=O)C(=O)N[C@@H](CCCNC(=N)N)C(N)=O` [Dansyl-LNR-amide] (Dansyl-Leu-Asn-Arg-NH2) is higher in “Relative Binding Index (RBI)” value: −40 a.u for the first, −31 a.u for the second.

Going from `CC(C)C[C@H](NS(=O)(=O)c1cccc2c(N(C)C)cccc12)C(=O)N[C@@H](CCC(N)=O)C(=O)N[C@@H](CCCNC(=N)N)C(N)=O` [Dansyl-LQR-amide] (Dansyl-Leu-Gln-Arg-NH2) to `CC(C)C[C@H](NS(=O)(=O)c1cccc2c(N(C)C)cccc12)C(=O)N[C@@H](CCCNC(=N)N)C(=O)N[C@@H](CCCNC(=N)N)C(N)=O` [Dansyl-LRR-amide] (Dansyl-Leu-Arg-Arg-NH2), the “Relative Binding Index (RBI)” value falls from −18 a.u to −33 a.u.

Going from `CSCC[C@H](NS(=O)(=O)c1cccc2c(N(C)C)cccc12)C(=O)N[C@@H](C)C(=O)N[C@@H](CCCNC(=N)N)C(N)=O` [Dansyl-MAR-amide] (Dansyl-Met-Ala-Arg-NH2) to `CSCC[C@H](NS(=O)(=O)c1cccc2c(N(C)C)cccc12)C(=O)N[C@@H](CC(=O)O)C(=O)N[C@@H](CCCNC(=N)N)C(N)=O` [Dansyl-MDR-amide] (Dansyl-Met-Asp-Arg-NH2), the “Relative Binding Index (RBI)” value rises from −93 a.u to −62 a.u.

For `CSCC[C@H](NS(=O)(=O)c1cccc2c(N(C)C)cccc12)C(=O)N[C@@H](CCC(=O)O)C(=O)N[C@@H](CCCNC(=N)N)C(N)=O` [Dansyl-MER-amide] (Dansyl-Met-Glu-Arg-NH2), the “Relative Binding Index (RBI)” value was −44 a.u.
